# Patent US9421204B2, “Oligomer modified diaromatic substituted compounds” (priority 2010, dated 2016)
# Structures can show the parent of a compound that is named as a salt.
# Experiments:
# [1] = Log P determination (Sirius GLpKa); type: physicochemical
# Procedure: The Sirius GLpKa instrument is used to determine the pKa and Log P. A blank standardization has to be completed first and passed in order to conduct the compound experiments. The solutions used by the instrument for the blank titration include water, a pH solution, and a surfactant (TRITON X-100). The TRITON X-100 was purchased commercially from Sirus. The 0.5% solution of TRITON X-100 was used in the experiment. In a 1 L volumetric flask 5 mls of TRITON X-100 is added and MILLI Q water to volume. The vessels used by the instrument were filled to ⅓ of their volume with each solution. Therefore the assay tray contains one vessel for water, pH solution, and surfactant for the blank run. The temperature of the water bath for the instrument is 25° C. The blank is calculated as an average of three “good” experiments. The “good” was denoted by a green check mark next to the assay number in the computer software. Once the blank was run successfully the instrument was ready to conduct the experiments. An additional method has to be set up for the Log P determinations for each compound. The conjugates are weighed into vessels in the same manner as for the previous experiment, i.e., 10% of the molecular weight. The vessels are placed in the assay tray of the instrument. The experimental parameters are entered into the computer. These included sample weight, molecular weight, assay type (Partition Log P), number of assays (three), and pKa value of the parent drug from the previous experiment. The run was started. There are three measurements for each run that are averaged to obtain the final results from the data points collected in the calculation software. All runs were denoted as “good” by the green check mark next to the assay number.
# [2] = test system: Caco-2 monolayers; assay: in vitro; type: in vitro ADME; settings: human, Caco-2, 2 h, 10 μM, pH 7.4
# Procedure: (§1) Each determination was performed in duplicate.
# (§2) Vr is the volume of the receiver compartment in cm^3.
# (§3) Vd is the volume of the donor compartment in cm^3.
# (§4) A is the area of the cell monolayer (1.13 cm^2 for 12-well Transwell®).
# (§5) CN is the nominal dosing concentration of the dosing solution in μM.
# (§6) CA is the average of the nominal dosing concentration and the measured 120 minute donor concentration in μM.
# (§7) Cr^final is the receiver concentration in μM at the end of the incubation period.
# (§8) Cd^final is the concentration of the donor in μM at the end of the incubation period.
# [3] = in vitro; type: in vitro ADME; settings: human
# Procedure: as §1, §2, §3, §4, §5, §6, §7, §8
# [4] = test system: CEM-SS cells; assay: Toxicity XTT in CEM-SS cells (cytoprotection assay); type: cell-based; settings: human
# Procedure: (§9) Cell Preparation—CEM-SS cells were passaged in T-75 flasks prior to use in the antiviral assay. On the day preceding the assay, the cells were split 1:2 to assure they were in an exponential growth phase at the time of infection. Total cell and viability quantification was performed using a hemocytometer and Trypan Blue dye exclusion. Cell viability was greater than 95% for the cells to be utilized in the assay. The cells were resuspended at 5×10^4 cells per ml in tissue culture medium and added to the drug containing microtiter plates in a volume of 50 μL.
# (§10) Plate Format—Each plate contains cell control wells (cells only), virus control wells (cells plus virus), drug toxicity wells (cells plus drug only), drug colorimetric control wells (drug only) as well as experimental wells (drug plus cells plus virus). Samples were tested in triplicate with eleven half-log dilutions per compound.
# (§11) Efficacy and Toxicity XTT—Following incubation at 37° C. in a 5% CO2 incubator, the test plates were stained with the tetrazolium dye XTT (2,3-bis(2-methoxy-4-nitro-5-sulfophenyl)-5-[(phenylamino)carbonyl]-2H-tetrazolium hydroxide). XTT-tetrazolium is metabolized by the mitochondrial enzymes of metabolically active cells to a soluble formazan product, allowing rapid quantitative analysis of the inhibition of HIV induced cell killing by anti-HIV test substances. XTT solution was prepared daily as a stock of 1 mg/mL in RPMI1640. Phenazine methosulfate (PMS) solution was prepared at 0.15 mg/mL in PBS and stored in the dark at −20° C. XTT/PMS stock was prepared immediately before use by adding 40 μL of PMS per ml of XTT solution. Fifty microliters of XTT/PMS was added to each well of the plate and the plate was re-incubated for 4 hours at 37° C. Plates were sealed with adhesive plate sealers and shaken gently or inverted several times to mix the soluble fosmazan product and the plate was read spectrophotometrically at 450/650 nm with a Molecular Devices Vmax plate reader.
# (§12) Data Analysis—Raw data was collected from the Softmax Pro 4.6 software and imported into a Excel XLFit4 spreadsheet for analysis by four parameter curve fit calculations. Both antiviral activity and toxicity are calculated.
# [5] = as above; type: cell-based; settings: human, CEM-SS TC50
# Procedure: as §9, §10, §11, §12
# [6] = pKa determination (Sirius GLpKa); type: physicochemical
# Procedure: The Sirius GLpKa instrument is used to determine the pKa and Log P. A blank standardization has to be completed first and passed in order to conduct the compound experiments. The solutions used by the instrument for the blank titration include water, a pH solution, and a surfactant (TRITON X-100). The TRITON X-100 was purchased commercially from Sirus. The 0.5% solution of TRITON X-100 was used in the experiment. In a 1 L volumetric flask 5 mls of TRITON X-100 is added and MILLI Q water to volume. The vessels used by the instrument were filled to ⅓ of their volume with each solution. Therefore the assay tray contains one vessel for water, pH solution, and surfactant for the blank run. The temperature of the water bath for the instrument is 25° C. The blank is calculated as an average of three “good” experiments. The “good” was denoted by a green check mark next to the assay number in the computer software. Once the blank was run successfully the instrument was ready to conduct the experiments.
# The pKa has to be determined first in order to calculate the Log P. The API is used to determine the pKa needed for the Log P experiment followed by the conjugates. The base compound was first weighed into a vessel. The amount weighed for each sample was 10% of the molecular weight of the compound. The same procedure was followed for each conjugate. The vessels were placed in the assay tray of the instrument. A method had to be set up for the pKa run. The experimental parameters are entered into the computer software. These included sample weight, molecular weight, assay type (aqueous pKa), number of assays (three), and titration range (generally 3.5-12). The run was started. There are three measurements for each run that are averaged to obtain the final results from the data points collected in the calculation software. All runs were denoted as “good” by the green check mark next to the assay number.
smiles,measurement,setting,value
"CC(C)Nc1cccnc1N1CCN(C(=O)c2cc3cc(NS(C)(=O)=O)ccc3[nH]2)CC1 [Delavirdine Mesylate, reference compound]",logP,[1],3.5
same,Recovery (%) A→B,[2],82%
same,Recovery (%) B→A,[2],86%
same,"Papp A→B at 2 hours, 10 μM","[3]; Caco-2, pH 7.4, Average Papp, A→B",9.87 ×10⁻⁶ cm/s
same,"Papp B→A at 2 hours, 10 μM","[3]; Caco-2, pH 7.4, Average Papp, B→A",67.9 ×10⁻⁶ cm/s
same,"recovery at 2 h, 10 μM","[3]; Caco-2, pH 7.4, Recovery (%) A→B",65%
same,CC50,[4],52.4 µM
same,CC50,[5],27.2 µM
same,pKa1,[6],4.323
same,pKa2,[6],9.272
